In US10669227B2 (THE RESEARCH FOUNDATION OF STATE UNIVERSITY OF NEW YORK, priority 2009, dated 2020):

Legend:
[1] = target: MMP-9 (human leukocyte gelatinase) (Homo sapiens (Human), UniProt P14780); assay: MMP-9 inhibition in vitro, octapeptide substrate, HPLC; format: biochemical; conditions: read-out: Maximum Inhibition At 100 μM compound (MMP-9)
Excerpt: In contrast all three chemically-modified curcumins at 100 μm final concentration inhibited gelatinase activity by 68-100% (FIG. 6 and Table 6).

IL-1β = assay: Inhibition of IL-1β production by LPS-stimulated monocytes; format: cell-based; conditions: Homo sapiens, Monocyte, 18 h, read-out: % Inhibition of IL-1β produced by stimulated Monocytes with LPS @ 18 h
Procedure: (§1) Briefly, human peripheral blood monocytes (HMs) were isolated from a leukocyte concentrate by density gradient centrifugation (Lymphoprep) and the isolated HMs cultured (2 h, 37° C.) to remove non-adherent cells. The adherent HMs wore cultured for 18 h (1×10^6 cells/well, 24-well plates)±endotoxin (LPS)±different compounds dissolved in DMSO (the final concentration of DMSO in the RPMI serum-free culture media with Pen./Strep. antibiotics was no greater than 0.5%). After incubation, the proinflammatory cytokines, TNFα, […], MCP-1 and IL-6 were measured in the conditioned media by ELISA and cytotoxicity was assessed by measuring the absorbance (490 nm) of formazan produced by reduction of MTS. The HMs alone±0.1-0.5% DMSO produced minimal levels of these pro-inflammatory cytokines. However, addition of 100 ng/ml or 10 μg/ml of LPS both dramatically stimulated cytokine production.

IL-6 = assay: Inhibition of IL-6 production by LPS-stimulated monocytes; format: cell-based; conditions: Homo sapiens, Monocyte, 18 h, read-out: % Inhibition of IL-6 produced by stimulated Monocytes with LPS @ 18 h
Procedure: as §1

MMP-2 = assay: Diabetic rat, gingiva gelatinase by gelatin zymography (MMP-2); format: in vivo; conditions: diabetic rats, oral daily, 3 weeks
Procedure: At the end of the treatment protocol, the rats were sacrificed, blood samples were collected, and whole skin (except over limbs) and qingiva were dissected (the skin, because of ample quantities of tissue were analyzed for each rat separately; the gingiva, because of the tiny amounts that could be harvested per rat, were pooled for each experimental group, as prescribed previously for tetracycline studies (30). In addition, the jaw bones were collected, defleshed, and bone loss around the teeth analyzed morphometrically as described previously (42, 43).
This appearance of MMP-9 only in the gingiva (FIG. 10), but not the skin (FIG. 12), of the diabetic rats is likely the result of the oral bacteria inducing inflammation in the gingiva of these immune-suppressed UD rats, whereas the skin is not exposed to this onslaught of bacteria particularly the anaerobic gram-negative bacteria in the mouth that cause periodontal and gingival inflammation.

[2] = Type I diabetic rat model, 1-week oral treatment: glucose, adverse events, serum level; format: in vivo; conditions: diabetic rats
Excerpt: The purpose of the following was to establish an in vivo model of excessive collagen degradation to be used to test efficacy of the compounds of the subject invention. Male Sprague-Dawley rats (typically 300-400 gms of body weight), specific viral antibody free, were ordered from Charles River. Following general anesthesia via isoflurane anesthetic inhalation, diabetes was induced by an I.V. administration of streptozotocin (STZ) (50*mg/kg body weight) (Sigma Chemical Co., St Louis, Mo., USA) diluted in 0.9% citrated saline (pH 4.5), after 12 hours of fasting. After the streptozotocin injection, the animals were given free access to water and food. […] In this test, the test-paper color changes to dark brown which indicates glycosuria.
The latter assays were carried out using Western blot analysis with monoclonal antibodies to MMP-8.

Sequence of MMP-9 (human leukocyte gelatinase) (P14780 94-707): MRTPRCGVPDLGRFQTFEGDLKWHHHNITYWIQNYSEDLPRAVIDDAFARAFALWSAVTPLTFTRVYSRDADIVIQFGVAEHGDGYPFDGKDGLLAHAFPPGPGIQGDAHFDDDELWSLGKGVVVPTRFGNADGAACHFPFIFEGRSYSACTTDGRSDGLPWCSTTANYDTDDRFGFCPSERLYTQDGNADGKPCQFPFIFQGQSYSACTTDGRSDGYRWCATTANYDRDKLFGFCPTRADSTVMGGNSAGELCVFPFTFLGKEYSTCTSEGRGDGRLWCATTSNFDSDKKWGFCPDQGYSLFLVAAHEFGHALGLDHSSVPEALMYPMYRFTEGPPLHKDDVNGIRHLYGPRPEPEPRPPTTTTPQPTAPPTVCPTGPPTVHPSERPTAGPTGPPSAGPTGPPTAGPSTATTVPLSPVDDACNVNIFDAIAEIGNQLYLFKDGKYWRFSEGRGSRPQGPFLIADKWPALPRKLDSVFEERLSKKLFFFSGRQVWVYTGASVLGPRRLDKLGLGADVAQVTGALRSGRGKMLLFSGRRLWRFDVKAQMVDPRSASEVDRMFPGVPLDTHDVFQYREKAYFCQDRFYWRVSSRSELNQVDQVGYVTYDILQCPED

## COC(=O)C(C(=O)/C=C/c1ccc(O)c(OC)c1)C(=O)/C=C/c1ccc(O)c(OC)c1 [Compound 1, 1,7-Bis(4-hydroxy-3-methoxyphenyl)-4-methoxycarbonylhepta-1E,6E-dien-3,5-dione]
[1]
  inhibition at 100 µM: 72%
IL-1β; 2 uM
  inhibition at 2 µM: 41%
IL-1β; 25 uM
  inhibition at 25 µM: 100%
IL-1β; 50 uM
  inhibition at 50 µM: 100%
IL-6; 2 uM
  inhibition at 2 µM: 30%
IL-6; 25 uM
  inhibition at 25 µM: 100%
IL-6; 50 uM
  inhibition at 50 µM: 100%
MMP-2
  Pro- and activated-forms of MMP-2 in gingiva: neither diabetes nor compound 1 appeared to have a detectable effect
[2]; 100 mg/kg oral once/day, 7 days
  Severity of hyperglycemia (serum glucose): no effect on the severity of hyperglycemia
[2]; n = 6, 1 week oral treatment
  Description of AEs: Minor inflamed
  Incidence of Adverse Events (AEs): 1/6
[2]; male, Sprague-Dawley, rat, serum, 100 mg/kg, 1 week oral treatment, FIG. 7
  concentration at 7 days: ~100 ng/mL
